Patent US6995262B1, “Use of acylsulfonamido-substituted polymethine dyes as fluorescene dyes and/or markers” (Bayer CropScience AG, priority 1999, dated 2006)
Marks after values point to notes of the source that are not given here.

How the values were obtained:
Format in all cases: physicochemical
[1] = Relative quantum yield of dye-protein conjugates, determined relative to Cy5; details: protein conjugates at similar molar dye/protein ratios, protein HSA
Procedure: The protein used was HSA (Human Serum Albumin).
Determination of the Quantum Yield
The quantum yield was determined relative to Cy5
For labeling, the crude product (1 aliquot) is dissolved in 1 ml of DMF. 50 μl of this solution are pipetted to 1.5 mL (=1 mg) of anti-HSA solution in carbonate buffer pH 9.2. The reaction solution is stirred at RT under the exclusion of light for 2 hours.
Using gel permeation chromatography over a Sephadex G25 column, the conjugate is then separated from unbound dye. The elution buffer used is PBS, pH 7.4.
Protein conjugates of other dyes, which are listed in Table 1, were prepared in an analogous manner.

[2] = Extinction coefficient determined assuming Beer's law; details: Beer's law assumed
Procedure: Determination of the Extinction Coefficient The extinction coefficient was determined assuming that Beer's law applies.

[3] = Aggregate formation: ratio of absorption maxima of monomer and aggregate at increasing salt concentration; details: for characteristics with respect to aggregate formation: with increasing salt concentration
Text: The intensity of the absorption in the absorption maximum of the monomer is a relative measure for the concentration of the monomer in the solution, the same also applies to the concentration of the aggregate, this can be correlated to the intensity of the absorption in the absorption maximum of the aggregate, which is shifted hypsochronically compared to the monomer. […] The increasing salt concentration causes an aggregate formation.

[4] = Photostability: dye solutions exposed to daylight, reduction of absorption over time; details: after 30 min, starting absorption 1.4 to 1.6 O.D.
Procedure: The photostability was determined by exposing dye solutions to daylight. The absorption of the solutions varied between 1.4 and 1.6 O.D. The reduction of the absorption over time is a measure for the photostability of the dyes. These conditions were chosen since the handling of the dyes, too, includes manual process steps during which the dyes are exposed to daylight. In the case of CY5, it is clearly noticeable that, even after 30 min, the absorption has decreased by 12%. This is not the case for the dyes according to the invention, and the latter are thus also more user-friendly, by maintaining a stable absorption.

SMILES | rel. Q.Y. [1] | Extinction coefficient [2] | Absorption monomer/absorption dimer ([3]; 2.0 M NaCl) | Absorption monomer/absorption dimer ([3]; 3.8 M NaCl) | Absorption monomer/absorption dimer ([3]; Water) | characteristics with respect to aggregate formation ([3]; in words) | decrease of absorption [4] [%] | aggregate formation compared to CY5 ([3]; in words, from Table 2)
CC1(C)C(/C=C2\C(=O)C(/C=C3/N(CCCCCC(=O)O)c4ccccc4C3(C)C)=C2O)=[N+](CC(=O)NS(C)(=O)=O)c2ccc(S(=O)(=O)[O-])cc21 [F] | 1.35 | 420 000 mol-1*cm^2* | 2.81 | 2.81 | 2.89 | stable characteristics | – | –
CCN1/C(=C/C=C/C=C/C2=[N+](CCCCCC(=O)O)c3ccc(S(=O)(=O)O)cc3C2(C)C)C(C)(C)c2cc(S(=O)(=O)[O-])ccc21 [CY5, reference compound] | – | – | 3.18 | 3.19 | 3.12 | – | 12 | –
CC1(C)C(/C=C2\C(=O)C(/C=C3/N(CCCCCC(=O)O)c4ccc(S(=O)(=O)[O-])cc4C3(C)C)=C2O)=[N+](CC(=O)NS(C)(=O)=O)c2ccc(S(=O)(=O)O)cc21 [J] | 1.36 | 240 000 mol-1*cm^2* | 4.35 | 4.40 | 4.40 | stable characteristics | – | considerably lower aggregate formation
